Measurements as given in publication PMC11882969 (Nature Communications, 2025).
“And” between values parts separate entries of the source, which are not always exact repeats. Equal values may be shown once. “Also recorded” adds a separate entry of the source.

Assays:
[1] = Pharmacokinetics: plasma, brain, CSF; conditions: for brain AUC0→inf / brain Cmax / level in CSF: 0.2 mg/kg i.p., CD-1 mice; for concentration at 1 min / concentration at 5 min / concentration at 15 min / concentration at 30 min / concentration at 60 min / concentration at 120 min / concentration at 240 min / concentration at 360 min / concentration at 480 min / half-life / AUC(0-inf) / Cmax: male, CD-1, mouse, 0.2 mg/kg; for concentration at 1 min / concentration at 5 min / concentration at 15 min / concentration at 30 min / concentration at 60 min / concentration at 120 min / concentration at 240 min / concentration at 360 min / concentration at 480 min: intraperitoneal; for half-life / AUC(0-inf) / Cmax: ip
[2] = target: hCB2 (Homo sapiens, UniProt P34972); experiment: Radioligand competition binding, HEK293 cells expressing human CB2R; set-up: expressed in transfected cells; host or cells: HEK293 cells stably expressing human CB2R (Laboratory of Ken Mackie); conditions: hCB2, log[drug], replicate columns
hCB2, sequence (P34972 whole entry): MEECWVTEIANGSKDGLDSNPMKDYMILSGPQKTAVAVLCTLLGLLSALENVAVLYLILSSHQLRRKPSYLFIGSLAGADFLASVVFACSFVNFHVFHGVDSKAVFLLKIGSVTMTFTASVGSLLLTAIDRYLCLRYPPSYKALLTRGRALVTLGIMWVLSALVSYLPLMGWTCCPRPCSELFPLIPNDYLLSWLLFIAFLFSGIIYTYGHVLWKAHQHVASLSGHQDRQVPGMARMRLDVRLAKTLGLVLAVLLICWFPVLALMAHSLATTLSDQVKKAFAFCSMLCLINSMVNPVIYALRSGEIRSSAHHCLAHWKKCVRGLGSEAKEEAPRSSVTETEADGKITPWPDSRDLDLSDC

[3] = Dynamic light scattering, colloidal aggregation; assay type: physicochemical; conditions: Log[compound, replicates, sheet FigS2b
Protocol: Samples were prepared as 8-point half-log dilutions in filtered 50 mM KPi buffer, pH 7.0 with final DMSO concentration at 1% (v/v). Colloidal particle formation was measured using DynaPro Plate Reader II (Wyatt Technologies). All compounds were screened in triplicate.

For `COC(=O)[C@@](C)(NC(=O)c1cc(C)n(-c2cccc(C(F)(F)F)c2)n1)c1cccs1` [‘1350], which “brain AUC0→inf” value [1] is on record?
Its value is 8180 ng·min/mL.

What about the “brain Cmax” value [1] of the same molecule?
Its value is 44.1 ng/g.

What about the “level in CSF” value [1] of the same molecule?
The value was “but not CSF compartments; also recorded: below the quantification limit”.

And the concentration at 1 min ([1]; CSF)?
The concentration at 1 min was 0 ng/mL.

And the concentration at 5 min ([1]; CSF)?
The concentration at 5 min was 1.2 ng/mL.

And the concentration at 15 min ([1]; CSF)?
Its concentration at 15 min is 0 ng/mL.

What about the concentration at 30 min ([1]; CSF) of the same molecule?
Its concentration at 30 min is 0 ng/mL.

And the concentration at 60 min ([1]; CSF)?
The concentration at 60 min was 0 ng/mL.

What about the concentration at 120 min ([1]; CSF) of the same molecule?
The concentration at 120 min was 0 ng/mL.

And the concentration at 240 min ([1]; CSF)?
The concentration at 240 min was 0 ng/mL.

What about the concentration at 360 min ([1]; CSF) of the same molecule?
Its concentration at 360 min is 0 ng/mL.

What about the concentration at 480 min ([1]; CSF) of the same molecule?
The concentration at 480 min was 0.14 ng/mL.

What about the concentration at 1 min ([1]; brain) of the same molecule?
The concentration at 1 min was 0 ng/g.

What about the concentration at 5 min ([1]; brain) of the same molecule?
The concentration at 5 min was 8.24 ng/g.

What about the concentration at 15 min ([1]; brain) of the same molecule?
Its concentration at 15 min is 41.8 ng/g.

What about the concentration at 30 min ([1]; brain) of the same molecule?
The concentration at 30 min was 29.5 ng/g.

And the concentration at 60 min ([1]; brain)?
The concentration at 60 min was 44.1 ng/g.

And the concentration at 120 min ([1]; brain)?
The concentration at 120 min was 33.1 ng/g.

And the concentration at 240 min ([1]; brain)?
The concentration at 240 min was 4.35 ng/g.

And the concentration at 360 min ([1]; brain)?
Its concentration at 360 min is 8.81 ng/g.

And the concentration at 480 min ([1]; brain)?
The concentration at 480 min was 2.87 ng/g.

What about the half-life ([1]; brain) of the same molecule?
Its half-life is 1.87 h.

And the concentration at 1 min ([1]; plasma)?
Its concentration at 1 min is 0 ng/mL.

And the concentration at 5 min ([1]; plasma)?
The concentration at 5 min was 6.41 ng/mL.

And the concentration at 15 min ([1]; plasma)?
The concentration at 15 min was 10.8 ng/mL.

What about the concentration at 30 min ([1]; plasma) of the same molecule?
Its concentration at 30 min is 5.48 ng/mL.

What about the concentration at 60 min ([1]; plasma) of the same molecule?
Its concentration at 60 min is 7.25 ng/mL.

And the concentration at 120 min ([1]; plasma)?
The concentration at 120 min was 6.15 ng/mL.

What about the concentration at 240 min ([1]; plasma) of the same molecule?
Its concentration at 240 min is 0.376 ng/mL.

And the concentration at 360 min ([1]; plasma)?
The concentration at 360 min was 1.1 ng/mL.

What about the concentration at 480 min ([1]; plasma) of the same molecule?
The concentration at 480 min was 0.486 ng/mL.

What about the AUC(0-inf) ([1]; plasma) of the same molecule?
Its AUC(0-inf) is 25.2 ng·h/mL.

And the Cmax ([1]; plasma)?
The Cmax was 10.8 ng/mL and 25 nM.

What about the half-life ([1]; plasma) of the same molecule?
The half-life was 1.85 h.

What about the “radioligand binding, competition curve point (normalized)” value (from here on “radioligand binding … (normalized)”) ([2]; M = -6.64345) of the same molecule?
The value was 1.586 and -0.1332.

And the “radioligand binding … (normalized)” value ([2]; M = -7.35666)?
The value was 2.208 and 1.359.

What about the “radioligand binding … (normalized)” value ([2]; M = -8.06987) of the same molecule?
The value was 13.0908 and 10.365.

What about the “radioligand binding … (normalized)” value ([2]; M = -8.78308) of the same molecule?
The value was 37.5933 and 37.49.

And the “radioligand binding … (normalized)” value ([2]; M = -9.49629)?
Its value is 71.1443 and 45.0839.

What about the “radioligand binding … (normalized)” value ([2]; M = -10.2095) of the same molecule?
Its value is 95.3669 and 77.3781.

And the “radioligand binding … (normalized)” value ([2]; M = -10.9227)?
The value was 103.545 and 89.3952.

And the “radioligand binding … (normalized)” value ([2]; M = -11.6359)?
Its value is 105.504 and 103.118.

Which results are given for `Cc1cc(C(=O)NC(C)(c2ccco2)c2ccco2)nn1-c1cccc(C(F)(F)F)c1` [‘4936]?
brain AUC0→inf [1]: 5610 ng·min/mL; brain Cmax [1]: 26.2 ng/g; level in CSF [1]: but not CSF compartments; concentration at 1 min ([1]; CSF): 0 ng/mL; concentration at 5 min ([1]; CSF): 0 ng/mL; concentration at 15 min ([1]; CSF): 0 ng/mL; concentration at 30 min ([1]; CSF): 0 ng/mL; concentration at 60 min ([1]; CSF): 0 ng/mL; concentration at 120 min ([1]; CSF): 0 ng/mL; concentration at 240 min ([1]; CSF): 0 ng/mL; concentration at 360 min ([1]; CSF): 0 ng/mL; concentration at 480 min ([1]; CSF): 0 ng/mL; concentration at 1 min ([1]; brain): 0 ng/g; concentration at 5 min ([1]; brain): 2.39 ng/g; concentration at 15 min ([1]; brain): 12 ng/g; concentration at 30 min ([1]; brain): 25.2 ng/g; concentration at 60 min ([1]; brain): 26.1 ng/g; concentration at 120 min ([1]; brain): 17.9 ng/g; concentration at 240 min ([1]; brain): 6.06 ng/g; concentration at 360 min ([1]; brain): 7.4 ng/g; concentration at 480 min ([1]; brain): 1.98 ng/g; half-life ([1]; brain): 2.08 h; concentration at 1 min ([1]; plasma): 0 ng/mL; concentration at 5 min ([1]; plasma): 0.512 ng/mL; concentration at 15 min ([1]; plasma): 1.63 ng/mL; concentration at 30 min ([1]; plasma): 4.54 ng/mL; concentration at 60 min ([1]; plasma): 3.59 ng/mL; concentration at 120 min ([1]; plasma): 3.55 ng/mL; concentration at 240 min ([1]; plasma): 1.18 ng/mL; concentration at 360 min ([1]; plasma): 0.867 ng/mL; concentration at 480 min ([1]; plasma): 0 ng/mL; AUC(0-inf) ([1]; plasma): 14.4 ng·h/mL; Cmax ([1]; plasma): 4.5 ng/mL and 11 nM; radioligand binding, competition curve point (normalized) ([2]; M = -6.64345): 0.8301 and 3.196; radioligand binding, competition curve point (normalized) ([2]; M = -7.35666): 5.0447 and 7.642; radioligand binding, competition curve point (normalized) ([2]; M = -8.06987): 20.2107 and 22.6869; radioligand binding, competition curve point (normalized) ([2]; M = -8.78308): 55.4917 and 61.8361; radioligand binding, competition curve point (normalized) ([2]; M = -9.49629): 84.5147 and 77.217; radioligand binding, competition curve point (normalized) ([2]; M = -10.2095): 91.2197 and 92.4778; radioligand binding, competition curve point (normalized) ([2]; M = -10.9227): 85.5045 and 95.2415; radioligand binding, competition curve point (normalized) ([2]; M = -11.6359): 108.381 and 91.8049

What does the source list for `Cc1c(C(=O)OCC2CSc3ccccc3O2)cnn1Cc1ccccc1` (centres unmarked) [‘7800]?
DLS scattering intensity ([3]; uM] 0): 1640000 and 1120000 and 1230000; DLS scattering intensity ([3]; uM] 1): 22000000 and 23800000 and 19200000; DLS scattering intensity ([3]; uM] 1.49996): 97300000 and 53900000 and 120000000; DLS scattering intensity ([3]; uM] 2): 210000000 and 155600000 and 163000000; DLS scattering intensity ([3]; uM] -0.500011): 631259 and 1270000 and 2510000; DLS scattering intensity ([3]; uM] -1): 884292 and 807566 and 1180000
